# Results: publication PMC7275090, “Mode of action of teixobactins in cellular membranes” (Nature Communications, 2020)
# Bridge positions count the residues as written; N and C are the ends. Square brackets hold non-standard residues; d marks the D form. Ends that are not written are not given here. d(aIle) = CC[C@H](C)[C@@H](N)C(=O)O; dNMeF = CN[C@H](Cc1ccccc1)C(=O)O
# Legend:
# [1] = Pyrene excimer fluorescence of pyrene-labelled Lipid II in DOPC LUVs (oligomerisation); conditions: 0.5 mol% pyrene-Lipid II, pH 8.0, 20 °C
# Method: The oligomerisation of fluorescent pyrene-labelled Lipid II was observed upon binding of [R4L10]-teixobactin. DOPC LUVs containing 0.5 (mol%) of pyrene-labelled Lipid II in buffer (10 mM Tris–Cl, 100 mM NaCl, pH 8.0) were prepared as described above. All fluorescence experiments were performed with a Cary Eclipse (FL0904M005) fluorometer. All samples (1.0 mL) were continuously stirred in a 10 × 4-mm quartz cuvette and kept at 20 °C. [R4L10]-teixobactin was titrated to the LUVs. Pyrene fluorescence was followed with spectral recordings between 360 and 550 nm (λex 350 nm, bandwidth 5 nm). The emission at 380 and 495 nm was recorded and averaged over 50 s, to obtain the values for the monomer and excimer intensity, respectively, to determine the excimer over monomer ratio for all conditions. […]
# 398, and 417 nm. Moreover, pyrene can display a characteristic fluorescence peak at longer wavelengths (490 nm), which occurs only when two pyrene rings reside within 10 Å of each other and form an excited state dimer, which known as an excimer.2 Source data are provided as a Source Data file. a) Fluorescence spectra of pyrene-labelled Lipid II symmetrically in large unilamellar vesicles (LUVs) at increasing concentrations of [R4L10]-teixobactin. […]
# c) Quantification of the excimer over monomer ratio as a function of the pyrene-labelled Lipid II concentration. […]
# [2] = ssNMR 15N T1rho relaxation (dynamics of bound teixobactin), Lys-Lipid II; conditions: for Bulk 15N R1rho / Bulk 15N T1rho: 950 MHz, 60 kHz MAS
# Method: Relaxation studies: ^1H-detected ^15N T1rho relaxation experiments were carried out at 950 and 700 MHz magnetic field, respectively, using 60 kHz MAS[51]. The ^15N transverse magnetization decay was probed with a ^15N spinlock field of 17.5 kHz. For the bulk, we measured the intensity of the most intense signal at ~8.80 ^1H ppm. T1rho trajectories were fit to single exponentials.
# Lipid I or II-doped multi-laminar vesicle preparations: DOPC or DOPG lipids were mixed with Lipid I or II in 1:1 MeOH:CHCl3 at the final Lipid I or II molar ratio (0–4 mol%/mol). The mixtures were dried and the lipid films were hydrated by vortexing with 2 mL of a teixobactin solution in 40 mM phosphate, 25 mM NaCl, pH 7.0.
# SSNMR samples: MLVs were collected by centrifugation (20,000×g) and loaded into ssNMR rotors. For 3.2 mm rotors, we used 800 nmol of antibiotic with unlabelled Lipid II or I, while we used 400 nmol with labelled Lipid II. For 1.3 mm rotors, samples contained 200 nmol of antibiotic for unlabelled Lipid II or I, while we used 100 nmol for labelled Lipid II. For all ssNMR samples, we used 4 mol%/mol Lipid II or I in the MLVs.
# [3] = 2D 15N1H ssNMR of bound teixobactin, Lys-Lipid I; format: binding; conditions: DOPC liposomes; clear signal changes in the ring motif
# Method: (§1) 1D, 2D, and 3D ^1H-detected experiments were performed at 60 kHz MAS frequency using magnetic fields of 16.4, 18.8, and 22.2 T (700, 800, and 950 MHz ^1H-frequency) at temperatures of 305 K. All ^1H-detected experiments were dipolar-based. PISSARRO low-power decoupling[47] was used during detection periods. 2D ^13C^13C spin diffusion experiments were performed with PARISxy[48] recoupling at 950 MHz and 15.5, 17, or 18 kHz MAS frequency at 270 K temperature using mixing times of 25–1000 ms. SPINAL64[49] was used in detection periods. The 2D scalar ^13C^13C TOBSY[50] experiment was acquired at 950 MHz with 8 kHz MAS at 295 K temperature with 6 ms ^13C–^13C magnetization transfer time. Chemical shift assignments were performed using standard ^1H-detected 3D CANH and CONH experiments[36],[51] in combination with 2D ^13C^13C PARISxy[48] experiments with different magnetization transfer times (see Supplementary Tables 1 and 2). DNP-enhanced 2D ^13C^13C spin diffusion (20 ms mixing time) ssNMR experiments[52] were carried out using a 263 GHz microwave frequency, 400 MHz ^1H frequency setup (Bruker Biospin) at 100 K temperature and 8.5 kHz MAS.
# Lipid I or II-doped multi-laminar vesicle preparations: DOPC or DOPG lipids were mixed with Lipid I or II in 1:1 MeOH:CHCl3 at the final Lipid I or II molar ratio (0–4 mol%/mol). […]
# [4] = 2D NH and DNP ssNMR of teixobactin-Lipid II complex in native cellular membranes; format: binding, Micrococcus flavus DSM 1790
# Method: as §1
# Native membrane vesicle preparations were obtained from Micrococcus flavus DSM 1790[13],[16]. The amount of antibiotic was ~7.5 and 30 nmol for the 1.3 and 3.2 mm rotors, respectively. […]
# [5] = Fluorescence microscopy of GUVs doped with NBD-labelled Lipid II (Lipid II clustering); conditions: 1 μM peptide, 4 h
# Method: GUVs were prepared using the electroformation method. The GUV cell is a self-assembled system which consists of a 5 mm-thick Teflon plate which is aligned with two titanium electrodes in a closed Teflon chamber. 1.5 μL of 0.5 mM DOPC doped with NBD-labelled Lipid II (0.1 mol%) were brushed on the electrodes. Next, the chamber was filled with 350 μL 0.1 M sucrose solution; the electrodes dipped in and then connected to a power supply which generated a sine wave of voltage 2.5 V at a frequency of 10 Hz for 90 min. Each microscopy slide (μ-slide 8 well, Ibidi) was covered with 350 μL BSA solution (1 mg/mL). To detach the GUVs from the electrodes the power supply was changed to square wave of voltage 2 V at a frequency of 2 Hz for 15 min. The slides were immersed in 300 μL 0.1 mM glucose solution to which 80 μL of GUVs were added. These were incubated for 4 h with 1 μM [R4L10]-teixobactin and observed by confocal microscopy. Anionic GUVs were prepared using a homemade electroformation setup with ITO coverslips (18 × 18 mm, 15–30 Ω, SPI supplies). On both slips, 3 μL of a chloroform–methanol (1:1, vol/vol) solution containing 1 mM of a 3:1 mixture of DOPC:DOPG (mol/mol) and 0.1 mol% NBD-labelled Lipid II was deposited and dried in a vacuum desiccator. With these slips, the electroformation chamber was assembled and filled with 0.1 M sucrose solution. The GUV cell was connected to the power supply and an alternating current applied (1 V, 10 Hz). GUV formation was carried out overnight.
# Microscopy: GUVs were imaged using Zeiss LSM 880 with ×63/1.2NA glycerol objective lens. The NBD label appeared green upon excitation by the 488 nm laser. The emission range for detection was 530–545 nm (λem peak = 539 nm). The brightfield images were used for detection and location of the GUVs without a fluorescent signal and also as a control to observe their shape.
# [6] = bound to Lys-LII in DOPC liposomes, 950 MHz/60 kHz MAS
# [7] = bound to Lys-Lipid II in DOPC (Lys-LII PC)
# [8] = bound to Lys-Lipid II in DOPG (Lys-LII_PG)
substance,measurement,setting,value
"D-Arg4-Leu10-teixobactin ([dNMeF]IS[dR][d(aIle)]IS[dT]ALI; ester 8-C; also: 13C,15N labels at Ile2, Ser3, Ile6, Ser7 and one Ala (residue not fully stated)) [[R4L10]-teixobactin]",speed of Lipid II oligomerization after addition,[1],virtually immediately
same,mobility of Lipid II-bound peptide with increasing anionic membrane charge,"[2]; DOPG vs DOPC, ssNMR relaxation",stark increase in mobility
same,"15N R1rho, Ala9",[2]; [6],8.95 s⁻¹
same,"15N R1rho, Ile2",[2]; [6],8.49 s⁻¹
same,"15N R1rho, Ile6",[2]; [6],7.70 s⁻¹
same,"15N R1rho, Leu10",[2]; [6],10.67 s⁻¹
same,"15N R1rho, Ser3",[2]; [6],7.40 s⁻¹
same,"15N R1rho, Ser7",[2]; [6],6.84 s⁻¹
same,"15N T1rho, Ala9",[2]; [6],111.70 ms
same,"15N T1rho, Ile2",[2]; [6],117.80 ms
same,"15N T1rho, Ile6",[2]; [6],129.90 ms
same,"15N T1rho, Leu10",[2]; [6],93.72 ms
same,"15N T1rho, Ser3",[2]; [6],135.20 ms
same,"15N T1rho, Ser7",[2]; [6],146.10 ms
same,Bulk 15N R1rho,[2]; [7],9.46 s⁻¹
same,Bulk 15N T1rho,[2]; [7],105.70 ms
same,Bulk 15N R1rho,[2]; [8],29.61 s⁻¹
same,Bulk 15N T1rho,[2]; [8],33.77 ms
same,binding to Lys-Lipid I,[3],also able to bind Lys-Lipid I
same,oligomerization and complex structure in natural membranes,"[4]; DNP-ssNMR 2D 13C13C, M. flavus membranes vs DOPC",conserved in natural membranes
same,cellular 2D NH spectrum vs anionic membranes,"[4]; M. flavus membranes, 7.5 nmol of drug",strongly resembled the one in anionic membranes
same,Lipid II segregation into clusters on GUVs,"[5]; DOPC GUVs, 0.1 mol% NBD-Lipid II",Lipid II segregated into μm-sized clusters
same,vesicle integrity and morphology after incubation,"[5]; DOPC GUVs, brightfield images, cluster sites show slight membrane deformations",morphology is maintained
same,Clustering of Lipid II in anionic membranes,"[5]; anionic GUVs 1:3 DOPG:DOPC (mol/mol), 0.1 mol% NBD-Lipid II",clearly visible
